Positions of bridges follow the written chain, without caps; N, C: chain ends. Residues, ends and D or L forms follow the SMILES beside them. No end group written: not given here.
Assays:
[1] = test system: K562-αvβ3 cells; assay: Equilibrium binding to K562 cells expressing αvβ3 integrin; settings: recombinant peptides with FLAG and His tags
Description: To determine the binding specificities of the AgRP peptides for αvβ3 integrin versus the αvβ5 and α5β1 integrins also expressed on U87MG cells, K562 leukemia cells that had been stably transfected with individual α and β integrin subunits were used. The engineered AgRP peptides were tested for binding to untransfected K562 cells, which intrinsically express α5β1 integrin. Equilibrium binding assays were performed on the untransfected K562 cells as described above for the U87MG cells. Three peptide concentrations were tested. Negligible signal over background levels (cells stained with fluorescein-conjugated anti-His antibody alone) even at 500 nM, the highest concentration tested, was observed.
The engineered AgRP peptides were tested for binding to K562 cells expressing αvβ5 αiiiβ3 or αvβ3 integrins. The peptides were tested at three concentrations with very little signal over background for cells expressing αvβ5 integrin, even at 500 nM, the highest concentration. The peptides bound weakly to the K562 cells expressing αiiβ3 integrins and, as expected, strongly to the K562 cells expressing αvβ3 integrins. In order to determine KD values for the engineered AgRP peptides against K562-αiiβ3 and K562-αvβ3 cells, binding titrations were done over a larger range of concentrations. […] KD values for peptide binding to K562-αiibβ3 cells could not be determined because binding was still increasing at the highest concentration (5 μM) of peptides tested.
All cell lines were cultured at 37° C. with 5% CO2. Adherent U87MG cells were obtained from ATCC and cultured in DMEM media (Gibco 11995) supplemented with 10% fetal bovine serum. Untransfected K562 cells (α5 β1-positive) were obtained from ATCC and cultured in suspension in IMDM media (Gibco 12440) supplemented with 10% fetal bovine serum. K562 cells stably transfected with αv β3, αv β5, or αiib β3 integrins were obtained from S. Blystone (Blystone, S. D., Graham, I. L., Lindberg, F. P. & Brown, E. J. (1994). Integrin avb3 differentially regulates adhesive and phagocytic functions of the fibronectin receptor a5b1. J. Cell Biol. 127, 1129-1137) and were grown in media supplemented with 10 μg/mL geneticin. Equilibrium binding assays were performed with 10^5 cells per reaction. Cells were suspended in IBB with varying amounts of engineered AgRP peptide at 4° C. for 3 h with gentle rocking. The cells were washed and resuspended in BPBS with a 1:40 dilution of fluorescein-conjugated anti-6×-His antibody (Bethyl A190-113F) and incubated on ice for 20 min. After washing, the cells were analyzed by flow cytometry using a BD FACSCalibur instrument and CellQuest software (Becton Dickinson, Franklin Lakes, N.J.). Mean fluorescence intensity values for each cell population was plotted against concentration on a log scale. […]

[2] = test system: U87MG glioblastoma cells; assay: Direct equilibrium binding titration on U87MG glioblastoma cells; settings: for Kd: recombinant peptides with FLAG and His tags, 3 h at 4° C.
Description: Direct equilibrium binding titrations of the recombinant engineered AgRP peptides were performed on U87MG glioblastoma cells. Peptides were incubated with cells for 3 h at 4° C., followed by staining with a fluorescein-conjugated anti-His antibody and analysis by flow cytometry. Equilibrium binding constant (KD) values were obtained by fitting plots of concentration versus mean fluorescence intensity to a sigmoidal curve using KaleidaGraph software.
All cell lines were cultured at 37° C. with 5% CO2. Adherent U87MG cells were obtained from ATCC and cultured in DMEM media (Gibco 11995) supplemented with 10% fetal bovine serum. Untransfected K562 cells (α5 β1-positive) were obtained from ATCC and cultured in suspension in IMDM media (Gibco 12440) supplemented with 10% fetal bovine serum. K562 cells stably transfected with αv β3, αv β5, or αiib β3 integrins were obtained from S. Blystone (Blystone, S. D., Graham, I. L., Lindberg, F. P. & Brown, E. J. (1994). Integrin avb3 differentially regulates adhesive and phagocytic functions of the fibronectin receptor a5b1. J. Cell Biol. 127, 1129-1137) and were grown in media supplemented with 10 μg/mL geneticin. Equilibrium binding assays were performed with 10^5 cells per reaction. Cells were suspended in IBB with varying amounts of engineered AgRP peptide at 4° C. for 3 h with gentle rocking. The cells were washed and resuspended in BPBS with a 1:40 dilution of fluorescein-conjugated anti-6×-His antibody (Bethyl A190-113F) and incubated on ice for 20 min. After washing, the cells were analyzed by flow cytometry using a BD FACSCalibur instrument and CellQuest software (Becton Dickinson, Franklin Lakes, N.J.). Mean fluorescence intensity values for each cell population was plotted against concentration on a log scale. Data was fit to sigmoidal curves to obtain equilibrium dissociation constants using KaleidaGraph (Synergy Software), and is presented as average values with standard deviations. Each assay was performed a minimum of three times.

[3] = target: α5β1 integrin (Homo sapiens, UniProt P05556+P08648); assay: Competition of 125I-echistatin to detergent-solubilized plate-coated integrin; type: binding; settings: 0.06 nM 125I echistatin, 5 nM and 50 nM peptide
α5β1 integrin, sequence (P08648 42-894 limits assumed): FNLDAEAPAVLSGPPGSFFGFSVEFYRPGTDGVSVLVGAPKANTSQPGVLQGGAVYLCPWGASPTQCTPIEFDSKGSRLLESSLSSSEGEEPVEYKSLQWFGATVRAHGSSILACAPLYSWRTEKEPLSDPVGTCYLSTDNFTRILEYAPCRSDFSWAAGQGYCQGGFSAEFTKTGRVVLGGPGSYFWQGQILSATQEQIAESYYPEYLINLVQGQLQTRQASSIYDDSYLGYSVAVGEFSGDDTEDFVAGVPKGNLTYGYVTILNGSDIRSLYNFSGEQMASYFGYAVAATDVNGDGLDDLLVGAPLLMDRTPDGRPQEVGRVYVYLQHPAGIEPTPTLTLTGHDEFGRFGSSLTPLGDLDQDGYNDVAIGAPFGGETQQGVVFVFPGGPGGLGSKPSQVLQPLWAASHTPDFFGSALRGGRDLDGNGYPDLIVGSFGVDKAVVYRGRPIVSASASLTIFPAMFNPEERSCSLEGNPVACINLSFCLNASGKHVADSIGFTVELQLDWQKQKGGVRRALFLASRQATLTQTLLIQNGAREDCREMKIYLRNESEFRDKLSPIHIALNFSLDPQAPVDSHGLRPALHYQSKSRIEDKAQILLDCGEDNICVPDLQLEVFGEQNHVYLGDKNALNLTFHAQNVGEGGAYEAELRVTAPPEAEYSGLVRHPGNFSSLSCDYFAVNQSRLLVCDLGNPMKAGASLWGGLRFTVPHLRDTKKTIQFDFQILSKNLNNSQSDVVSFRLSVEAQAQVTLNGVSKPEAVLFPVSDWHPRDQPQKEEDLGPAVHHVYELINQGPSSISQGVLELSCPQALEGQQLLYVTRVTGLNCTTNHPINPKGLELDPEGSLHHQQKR
α5β1 integrin, sequence (P08648 895-1049 partner limits assumed): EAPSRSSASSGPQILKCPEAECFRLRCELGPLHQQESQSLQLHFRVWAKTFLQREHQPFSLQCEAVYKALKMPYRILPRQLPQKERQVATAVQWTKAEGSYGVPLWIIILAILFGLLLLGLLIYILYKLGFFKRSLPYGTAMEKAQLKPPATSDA
α5β1 integrin, sequence (P05556 21-798): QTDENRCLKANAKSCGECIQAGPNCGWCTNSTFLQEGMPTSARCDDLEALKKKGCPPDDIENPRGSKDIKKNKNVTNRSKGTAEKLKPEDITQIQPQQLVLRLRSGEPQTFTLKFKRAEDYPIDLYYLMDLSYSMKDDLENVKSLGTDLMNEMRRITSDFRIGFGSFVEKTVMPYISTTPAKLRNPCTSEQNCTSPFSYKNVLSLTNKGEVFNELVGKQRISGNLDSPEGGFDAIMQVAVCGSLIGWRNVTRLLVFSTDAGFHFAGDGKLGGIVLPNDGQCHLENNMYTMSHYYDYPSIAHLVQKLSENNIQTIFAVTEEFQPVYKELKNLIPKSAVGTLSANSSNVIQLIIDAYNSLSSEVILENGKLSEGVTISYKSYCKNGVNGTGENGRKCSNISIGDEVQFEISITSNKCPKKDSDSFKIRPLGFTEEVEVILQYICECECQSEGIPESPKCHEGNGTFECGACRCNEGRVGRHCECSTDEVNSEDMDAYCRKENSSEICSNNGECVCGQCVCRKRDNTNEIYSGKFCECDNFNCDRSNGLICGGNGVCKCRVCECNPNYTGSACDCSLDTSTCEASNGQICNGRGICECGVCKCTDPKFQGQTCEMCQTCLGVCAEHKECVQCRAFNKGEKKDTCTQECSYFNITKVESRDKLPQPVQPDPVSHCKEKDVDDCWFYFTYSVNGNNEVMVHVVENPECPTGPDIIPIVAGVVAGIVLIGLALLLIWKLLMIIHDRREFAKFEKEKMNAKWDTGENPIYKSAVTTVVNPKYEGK
Description: (§1) FIG. 10A through FIG. 10D is a series of histograms showing binding specificities to integrins αvβ3, αvβ5, α5β1, and αiibβ3 for engineered EETI-RGD peptides compared to controls. Error bars represent experiments performed in triplicate. Competition binding of 0.06 nM ^125I echistatin with 5 nM (black bars) and 50 nM (grey bars) unlabeled peptide to plate-coated integrins was measured. […] The engineered peptides have very little binding to αiibβ3 integrin.
(§2) This was done by competition of ^125I-echistatin to detergent-solubilized integrin receptors coated onto microtiter plates (see FIG. 10). […] This is consistent with previous studies which have shown αv integrin receptors can accommodate a wide range of RGD-containing cyclic structures. […] However, since α5β1 integrins are expressed on many tumors and are all involved in mediating angiogenesis and metastasis, a broad spectrum agent that targets all three integrins will be useful for diagnostic and therapeutic applications. With the exception of echistatin, all of the RGD-containing peptides bound weakly to the αiibβ3 receptor, showing the specificity of the present peptides for the αv and α5-containing integrin heterodimers. This characteristic is valuable for molecular imaging and therapeutic applications, since binding to αiibβ3 on platelet cells prevents blood clotting and would lead to non-specific in vivo effects.

[4] = target: αiibβ3 integrin (Homo sapiens, UniProt P05106+P08514); assay: as above; type: binding; settings: 0.06 nM 125I echistatin, 5 nM and 50 nM peptide
Description: as §1, §2

[5] = target: αvβ5 integrin (Homo sapiens, UniProt P06756+P18084); assay: as above; type: binding; settings: 0.06 nM 125I echistatin, 5 nM and 50 nM peptide
αvβ5 integrin, sequence (P06756 31-889 limits assumed): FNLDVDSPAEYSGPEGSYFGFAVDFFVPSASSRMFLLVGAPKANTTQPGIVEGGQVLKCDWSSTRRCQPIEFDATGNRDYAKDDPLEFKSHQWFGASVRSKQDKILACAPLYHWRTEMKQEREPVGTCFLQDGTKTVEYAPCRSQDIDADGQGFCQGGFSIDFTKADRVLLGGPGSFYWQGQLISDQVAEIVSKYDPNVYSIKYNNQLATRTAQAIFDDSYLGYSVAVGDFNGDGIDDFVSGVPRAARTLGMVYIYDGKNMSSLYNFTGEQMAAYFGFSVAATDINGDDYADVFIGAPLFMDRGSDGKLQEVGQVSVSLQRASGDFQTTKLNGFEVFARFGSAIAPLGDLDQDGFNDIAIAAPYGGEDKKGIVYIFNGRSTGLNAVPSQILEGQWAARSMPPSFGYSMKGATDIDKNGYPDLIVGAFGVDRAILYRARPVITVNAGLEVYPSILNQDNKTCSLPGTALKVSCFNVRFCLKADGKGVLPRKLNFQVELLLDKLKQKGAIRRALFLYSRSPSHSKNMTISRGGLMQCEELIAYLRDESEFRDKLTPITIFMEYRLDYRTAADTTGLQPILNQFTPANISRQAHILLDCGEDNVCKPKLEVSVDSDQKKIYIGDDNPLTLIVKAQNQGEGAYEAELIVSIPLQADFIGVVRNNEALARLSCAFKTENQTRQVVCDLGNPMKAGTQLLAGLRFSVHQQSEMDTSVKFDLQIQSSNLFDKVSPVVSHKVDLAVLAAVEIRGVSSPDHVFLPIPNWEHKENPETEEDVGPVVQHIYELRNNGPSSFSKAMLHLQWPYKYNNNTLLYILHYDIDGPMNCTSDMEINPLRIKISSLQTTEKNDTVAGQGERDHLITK
αvβ5 integrin, sequence (P06756 891-1048 partner limits assumed): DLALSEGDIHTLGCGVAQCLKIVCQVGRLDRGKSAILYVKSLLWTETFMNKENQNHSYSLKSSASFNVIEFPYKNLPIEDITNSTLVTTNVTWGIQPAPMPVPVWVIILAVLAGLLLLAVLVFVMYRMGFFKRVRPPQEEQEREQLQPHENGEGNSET
αvβ5 integrin, sequence (P18084 24-799): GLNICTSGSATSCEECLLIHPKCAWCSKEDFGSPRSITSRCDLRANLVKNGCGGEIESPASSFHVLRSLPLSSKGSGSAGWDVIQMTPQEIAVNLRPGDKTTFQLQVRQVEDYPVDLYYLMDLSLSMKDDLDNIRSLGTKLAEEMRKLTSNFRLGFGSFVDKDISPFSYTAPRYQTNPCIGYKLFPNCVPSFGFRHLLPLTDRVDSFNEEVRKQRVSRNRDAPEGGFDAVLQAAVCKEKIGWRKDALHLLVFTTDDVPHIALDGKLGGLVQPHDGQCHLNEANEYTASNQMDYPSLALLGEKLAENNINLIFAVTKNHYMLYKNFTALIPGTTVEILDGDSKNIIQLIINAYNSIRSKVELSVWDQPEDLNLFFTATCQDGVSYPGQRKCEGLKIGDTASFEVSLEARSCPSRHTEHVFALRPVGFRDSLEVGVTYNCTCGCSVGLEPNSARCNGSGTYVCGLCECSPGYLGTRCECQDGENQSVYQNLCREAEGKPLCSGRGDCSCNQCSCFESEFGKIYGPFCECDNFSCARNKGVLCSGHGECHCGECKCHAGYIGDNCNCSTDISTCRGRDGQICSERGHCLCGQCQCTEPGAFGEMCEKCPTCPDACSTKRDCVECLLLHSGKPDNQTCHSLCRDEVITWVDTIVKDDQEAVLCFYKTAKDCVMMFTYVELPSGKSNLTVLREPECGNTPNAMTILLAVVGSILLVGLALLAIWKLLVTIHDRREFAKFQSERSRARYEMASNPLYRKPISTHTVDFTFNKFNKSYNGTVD
Description: as §1, §2

[6] = target: αvβ3 integrin (Homo sapiens, UniProt P05106+P06756); assay: as above; type: binding; settings: 0.06 nM 125I echistatin, 5 nM and 50 nM peptide
αvβ3 integrin, sequence (P06756 31-889 limits assumed): as the sequence (P06756 31-889 limits assumed) above
αvβ3 integrin, sequence (P06756 891-1048 partner limits assumed): as the sequence (P06756 891-1048 partner limits assumed) above
αvβ3 integrin, sequence (P05106 27-788): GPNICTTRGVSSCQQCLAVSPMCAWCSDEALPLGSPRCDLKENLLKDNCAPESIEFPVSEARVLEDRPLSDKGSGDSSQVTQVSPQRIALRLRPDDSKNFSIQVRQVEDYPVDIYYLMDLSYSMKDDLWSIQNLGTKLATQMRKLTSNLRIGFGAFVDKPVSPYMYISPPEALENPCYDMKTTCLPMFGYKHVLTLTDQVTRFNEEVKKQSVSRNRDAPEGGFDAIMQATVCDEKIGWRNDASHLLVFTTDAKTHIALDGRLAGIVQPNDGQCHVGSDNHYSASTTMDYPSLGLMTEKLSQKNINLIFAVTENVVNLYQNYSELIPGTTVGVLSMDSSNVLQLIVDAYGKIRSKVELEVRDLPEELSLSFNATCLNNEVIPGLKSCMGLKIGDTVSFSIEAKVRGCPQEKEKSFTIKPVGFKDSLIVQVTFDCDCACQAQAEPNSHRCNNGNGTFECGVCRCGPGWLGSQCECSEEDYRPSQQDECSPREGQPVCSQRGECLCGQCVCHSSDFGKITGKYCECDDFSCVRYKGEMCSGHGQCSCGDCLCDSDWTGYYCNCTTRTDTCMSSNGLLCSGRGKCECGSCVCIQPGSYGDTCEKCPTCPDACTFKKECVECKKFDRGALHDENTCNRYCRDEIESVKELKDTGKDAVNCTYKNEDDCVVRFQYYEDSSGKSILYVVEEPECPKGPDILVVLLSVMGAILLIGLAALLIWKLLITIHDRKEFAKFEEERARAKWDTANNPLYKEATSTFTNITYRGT
Description: as §1, §2

| Compound | Kd [1] [nM] | fold improvement in affinity over the worst binder, 6C [2] [fold] | Kd [2] [nM] | binding to α5β1 integrin, in words [3] | binding to αiibβ3 integrin, in words [4] | binding to αvβ5 integrin, in words [5] | binding to αvβ3 integrin, in words [6] |
| --- | --- | --- | --- | --- | --- | --- | --- |
| CC(C)C[C@@H]1NC(=O)[C@@H]2CSSC[C@@H]3NC(=O)[C@H]([C@@H](C)O)NC(=O)[C@H](C)NC(=O)[C@H](C)NC(=O)[C@@H]4CCCN4C(=O)[C@H](CC(=O)O)NC(=O)[C@H](CSSC[C@H](NC(=O)CN)C(=O)N[C@@H](C(C)C)C(=O)N[C@@H](CCCNC(=N)N)C(=O)N[C@@H](CC(C)C)C(=O)N[C@@H](Cc4c[nH]cn4)C(=O)N[C@@H](CCC(=O)O)C(=O)N[C@@H](CO)C(=O)N2)NC(=O)[C@H](CSSC[C@@H](C(=O)N[C@@H](CCCNC(=N)N)C(=O)O)NC(=O)[C@H](Cc2ccc(O)cc2)NC(=O)[C@@H]2CSSC[C@H](NC(=O)[C@H](Cc4ccc(O)cc4)NC3=O)C(=O)N[C@@H](CO)C(=O)NCC(=O)N[C@@H](CCCNC(=N)N)C(=O)NCC(=O)N[C@@H](CC(=O)O)C(=O)N[C@@H](CC(N)=O)C(=O)N[C@@H](CC(=O)O)C(=O)N[C@@H](CC(C)C)C(=O)N[C@@H](C(C)C)C(=O)N2)NC(=O)[C@@H]2CCCN2C(=O)[C@H](C(C)C)NC(=O)[C@H](CCC(N)=O)NC(=O)[C@H](CCC(N)=O)NC(=O)CNC1=O [7A] (H-GCVRLHESCLGQQVPCCDPAATCYCSGRGDNDLVCYCR-OH; disulfide 2-17, 9-23, 16-37, 25-35; N-terminus and C-terminus assumed) | 0.89 ± 0.36 | 17 | 0.78 ± 0.37 | – | – | – | – |
| DOTA-conjugated FN-RDG2: DOTA conjugate of negative control with RGD switched to RDG (GCVTGRDGSPASSCSQDSDCLAGCVCGPNGFCG; cysteine pairing not given here; also: DOTA conjugate, position not given here) | – | – | – | did not bind | did not bind | did not bind | did not bind |
| CC(C)C[C@@H]1NC(=O)[C@@H]2CSSC[C@@H]3NC(=O)[C@H]([C@@H](C)O)NC(=O)[C@H](C)NC(=O)[C@H](C)NC(=O)[C@@H]4CCCN4C(=O)[C@H](CC(=O)O)NC(=O)[C@H](CSSC[C@H](NC(=O)CN)C(=O)N[C@@H](C(C)C)C(=O)N[C@@H](CCCNC(=N)N)C(=O)N[C@@H](CC(C)C)C(=O)N[C@@H](Cc4c[nH]cn4)C(=O)N[C@@H](CCC(=O)O)C(=O)N[C@@H](CO)C(=O)N2)NC(=O)[C@H](CSSC[C@@H](C(=O)N[C@@H](CCCNC(=N)N)C(=O)O)NC(=O)[C@H](Cc2ccc(O)cc2)NC(=O)[C@@H]2CSSC[C@H](NC(=O)[C@H](Cc4ccc(O)cc4)NC3=O)C(=O)N[C@@H]([C@@H](C)O)C(=O)NCC(=O)N[C@@H](CCCNC(=N)N)C(=O)NCC(=O)N[C@@H](CC(=O)O)C(=O)N[C@@H](CCC(=O)O)C(=O)N[C@@H](CCCCN)C(=O)N[C@@H](CC(C)C)C(=O)N[C@@H](CCCNC(=N)N)C(=O)N2)NC(=O)[C@@H]2CCCN2C(=O)[C@H](C(C)C)NC(=O)[C@H](CCC(N)=O)NC(=O)[C@H](CCC(N)=O)NC(=O)CNC1=O [6C] (H-GCVRLHESCLGQQVPCCDPAATCYCTGRGDEKLRCYCR-OH; disulfide 2-17, 9-23, 16-37, 25-35; N-terminus and C-terminus assumed) | 15 ± 4 | – | 13 ± 2 | – | – | – | – |
| CSCC[C@@H]1NC(=O)[C@H](CC(=O)O)NC(=O)[C@H](CCCNC(=N)N)NC(=O)[C@H](CC(=O)O)NC(=O)CNC(=O)[C@H](CCCNC(=N)N)NC(=O)CNC(=O)[C@H](CCC(=O)O)NC(=O)[C@@H]2CSSC[C@H](NC(=O)[C@H](CCCCN)NC1=O)C(=O)N[C@@H](Cc1ccc(O)cc1)C(=O)N[C@H](C(=O)N[C@@H](CCCNC(=N)N)C(=O)O)CSSC[C@@H]1NC(=O)[C@@H]3CCCN3C(=O)[C@H](C(C)C)NC(=O)[C@H](CCC(N)=O)NC(=O)[C@H](CCC(N)=O)NC(=O)CNC(=O)[C@H](CC(C)C)NC(=O)[C@@H]3CSSC[C@H](NC(=O)[C@H]([C@@H](C)O)NC(=O)[C@H](C)NC(=O)[C@H](C)NC(=O)[C@@H]4CCCN4C(=O)[C@H](CC(=O)O)NC(=O)[C@H](CSSC[C@H](NC(=O)CN)C(=O)N[C@@H](C(C)C)C(=O)N[C@@H](CCCNC(=N)N)C(=O)N[C@@H](CC(C)C)C(=O)N[C@@H](Cc4c[nH]cn4)C(=O)N[C@@H](CCC(=O)O)C(=O)N[C@@H](CO)C(=O)N3)NC1=O)C(=O)N[C@@H](Cc1ccc(O)cc1)C(=O)N2 [7J] (H-GCVRLHESCLGQQVPCCDPAATCYCEGRGDRDMKCYCR-OH; disulfide 2-17, 9-23, 16-37, 25-35; N-terminus and C-terminus assumed) | 16 ± 8 | – | 8.3 ± 1.8 | – | – | – | – |
| CC(C)C[C@@H]1NC(=O)[C@@H]2CSSC[C@@H]3NC(=O)[C@H]([C@@H](C)O)NC(=O)[C@H](C)NC(=O)[C@H](C)NC(=O)[C@@H]4CCCN4C(=O)[C@H](CC(=O)O)NC(=O)[C@H](CSSC[C@H](NC(=O)CN)C(=O)N[C@@H](C(C)C)C(=O)N[C@@H](CCCNC(=N)N)C(=O)N[C@@H](CC(C)C)C(=O)N[C@@H](Cc4c[nH]cn4)C(=O)N[C@@H](CCC(=O)O)C(=O)N[C@@H](CO)C(=O)N2)NC(=O)[C@H](CSSC[C@@H](C(=O)N[C@@H](CCCNC(=N)N)C(=O)O)NC(=O)[C@H](Cc2ccc(O)cc2)NC(=O)[C@@H]2CSSC[C@H](NC(=O)[C@H](Cc4ccc(O)cc4)NC3=O)C(=O)N[C@@H](C(C)C)C(=O)NCC(=O)N[C@@H](CCCNC(=N)N)C(=O)NCC(=O)N[C@@H](CC(=O)O)C(=O)N[C@@H](CC(=O)O)C(=O)N[C@@H](CC(N)=O)C(=O)N[C@@H](CC(C)C)C(=O)N[C@@H](CCCCN)C(=O)N2)NC(=O)[C@@H]2CCCN2C(=O)[C@H](C(C)C)NC(=O)[C@H](CCC(N)=O)NC(=O)[C@H](CCC(N)=O)NC(=O)CNC1=O [7E] (H-GCVRLHESCLGQQVPCCDPAATCYCVGRGDDNLKCYCR-OH; disulfide 2-17, 9-23, 16-37, 25-35; N-terminus and C-terminus assumed) | 1.6 ± 1.1 | – | 1.4 ± 0.5 | – | – | – | – |
